In patent US12156867B2, “Melanocortin agents for use in the therapeutic treatment of melanoma, tumors of the gastrointestinal tract, and thyroid carcinoma” (UNIVERSITA' DI PISA, priority 2018, dated 2024):

Legend:
Format in all cases: cell-based
[1] = test system: A-2058 human melanoma cells; assay: Apoptosis visualised by TO-PRO3 iodide nuclear staining, confocal microscopy; details: A-2058 cells, 10 nM, 72 h
Experimental: (§1) In order to assess the apoptotic activity, the melanoma cells were plated at 2×10^5 in sterile Petri dishes. The analysis of apoptosis was performed on WM-266-4 and A-2058 cell lines after treatment with the compound ML00253764 at the experimental IC50 obtained after 72 hours. After the treatment, the cells were scraped off and recovered with their medium into blind ended tubes and counted in the Burker chamber. An aliquot containing 50,000 cells was centrifuged for 10 minutes at 800 rpm, the pellet thus obtained was lysed with an appropriate volume of lysis buffer for 30 minutes at room temperature, then again centrifuged at 200 g for 10 minutes. The supernatant was used for apoptosis analysis by ELISA assay (Cell Death detection ELISA PLUS, Roche). The ELISA apoptosis assay was performed in 96-well microplates and the absorbance reading was performed by using the Thermo labsystems Multiskan Spectrum reader (M-Medical, MI). To visualize the apoptotic process, 2×10^4 A-2058 cells were plated on slides in a 12-well plate and treated for 72 hours with the compound ML00253764 at a concentration of 10 nM. At the end of the incubation with the drug, the cells were washed with PBS, fixed and stained with TO-PRO3 iodide. The coverslips were finally mounted, and the slides viewed under a Leica TCS SP5 confocal laser scanning microscope. […]

[2] = test system: HT-29 human carcinoma cell line of the gastrointestinal tract; assay: In vitro cytotoxicity / antiproliferative effect, cell count after 72 h; details: HT-29 cells
From the text: (§2) The present study used the human melanoma cell lines A-2058 BRAF-mutant (CRL-11147), obtained from ATCC (American Type Culture Collection, Manassas, USA), and WM-266-4 (91061233), obtained from ECACC (European Collection of Authenticated Cell Cultures). In addition, carcinoma cells of the gastrointestinal tract (Caco-2, HT-29) and thyroid carcinoma cells (8305C) were used. The compound ML00253764 was purchased from Tocris Bioscience (Bristol, UK), and solubilized in sterile water. The compound Vemurafenib was obtained from Selleckchem (Munich, Germany) and dissolved in dimethyl sulfoxide (DMSO). For the in vitro studies, both drugs were dissolved in a stock solution at 10 mM concentration. In the same experiment, the concentration of DMSO in the medium of the controls was the same used to obtain the maximum concentration of Vemurafenib in the cell culture media. The biotinylated anti-rabbit IgG antibody and the avidin-biotin complex were purchased from Vector Laboratories (Burlingame, CA, USA), while TO-PRO-3 iodide was from Molecular Probes (Eugene, OR, USA). Anti-MC4R antibody (ab75506) and goat anti-rabbit IgG antibody (Alexa Fluor 488) were purchased from Abcam (Cambridge, MA, USA).
(§3) The two tumor cell lines WM-266-4 and A-2058 were grown in cell culture flasks as monolayers and maintained in EMEM and DMEM, respectively, supplemented with 10% fetal bovine serum (FBS), penicillin (50 IU/ml), streptomycin (50 μg/ml) and L-Glutamine (2 mM). The Caco-2, HT-29 and 8305C cells, respectively, were grown in EMEM 20% FBS, McCoy's 5a Medium Modified 10% FBS and RPMI 20% FBS. All reagents used for maintaining tumor cells in culture were purchased from Sigma-Aldrich. The cell lines were maintained in the B5061EK/CO2 mod. Heraeus incubator (Hanau, Germany) at a temperature of 37° C. in a humid atmosphere at 5% CO2. The cells were detached from the culture plates while in the logarithmic growth phase by using a 10× trypsin-EDTA solution and finally plated again to be tested or to keep them in culture.
(§4) The concentration that reduced cell survival by 50% (IC50) compared to controls was finally calculated with GraphPad Prism (version 5.0, San Diego, CA). The simultaneous combination of Vemurafenib and ML00253764 was assessed in the 2 melanoma lines for 72 hours using the aforementioned compounds in a fixed molar ratio of 1:10. The assessment of the level of interaction (synergism, additivity or antagonism) between the compounds ML00253764 and Vemurafenib was performed with the Combination Index (CI) method, according to which CI=1 indicates an additive effect, CI>1 an antagonistic effect and CI<1 a synergistic effect.
(§5) The related IC50s were calculated at the end of the experiments.

[3] = test system: 8305C human thyroid carcinoma cell line; assay: as above; details: 8305C cells
From the text: as §2, §3, §4, §5

[4] = test system: WM 266-4 human melanoma cell line; assay: as above; details: for IC50: Homo sapiens, WM 266-4 cells, 72 h drug exposure, cell proliferation vs vehicle controls
From the text: as §2, §3, §4

[5] = test system: A-2058 human melanoma cell line; assay: as above; details: A-2058 cells; for IC50: Homo sapiens, A2058, 72 h drug exposure, cell proliferation vs vehicle controls
From the text: as §2, §3, §4

[6] = test system: WM 266-4 human melanoma cells; assay: Apoptosis analysis by Cell Death Detection ELISA Plus; details: WM 266-4 cells, 35 nM (corresponding to the IC50), 72 h
Experimental: as §1

[7] = test system: A-2058 human melanoma cells; assay: as above; details: A-2058 cells, 10 nM (corresponding to the IC50), 72 h
Experimental: as §1

[8] = Homo sapiens, 72 h drug exposure, cell proliferation vs vehicle controls

Structure (SMILES)	apoptosis, TO-PRO3 nuclear fluorescence [1]	antiproliferative effect ([2]; 10 nM, 72 h)	IC50 [2, 8] [nM]	antiproliferative effect ([3]; 10 nM, 72 h)	IC50 [3, 8] [nM]	IC50 [4] [nM]	antiproliferative effect ([4]; WM-266-4 cells, 10 nM, 72 h)	antiproliferative effect ([5]; 10 nM, 72 h)	IC50 [5] [nM]	apoptotic signal (ELISA, cytosolic nucleosomes) [6]	pro-apoptotic activity (ELISA, cytosolic nucleosomes) [7]
COc1ccc(Br)cc1CCc1c(F)cccc1C1=NCCN1 [ML00253764, 2-[2-[2-(5-bromo-2-methoxyphenyl)-ethyl]-3-fluorophenyl]-4,5-dihydro-1H-imidazole]	increase in fluorescence with “shrunken” nuclei	significant antiproliferative effect	806	significant antiproliferative effect	7670	33.7	significant antiproliferative effect	significant antiproliferative effect	11.1	significant increase in the apoptotic signal	significant pro-apoptotic activity
CCCS(=O)(=O)Nc1ccc(F)c(C(=O)c2c[nH]c3ncc(-c4ccc(Cl)cc4)cc23)c1F [Vemurafenib]						46.6			526		
